Literature values, collected in US6887210B2, “Devices and methods for obtaining mammary fluid samples for evaluating breast diseases, including cancer” (Atossa Healthcare, Inc., priority 2000, dated 2005).

Conditions: rapid removal from plasma by kidney, liver and mammary gland

half-life of oxytocin in the human bloodstream / circulation: 10 to 15 min
SMILES: CC[C@H](C)[C@@H]1NC(=O)[C@H](Cc2ccc(O)cc2)NC(=O)[C@@H](N)CSSC[C@@H](C(=O)N2CCC[C@H]2C(=O)N[C@@H](CC(C)C)C(=O)NCC(N)=O)NC(=O)[C@H](CC(N)=O)NC(=O)[C@H](CCC(N)=O)NC1=O [oxytocin]
